Blank lines part the entries; values can stand above or below the molecule they belong to.
Key:
[1] = test system: testis of I/R rats; test: Testicular TAC in testis of I/R rats; type: in vivo; conditions: i.p. 1 h before ischemia, dose equivalent to 30 mg NAC, mean ± S.E.M, n=6
Description: (§1) This section describes the methods used in the investigation of the antiapoptotic effect of the novel compounds 6a–g then supported by further histological and molecular docking studies. The antiapoptotic effect of 6a–g was evaluated through evaluation of decreasing tissue damage induced by I/R in the testis of rats in a dose equivalent to 30 mg N-acetylcysteine (NAC) as an antiapoptotic reference. The rats were subdivided into sham, I/R, NAC and treated with tested compounds groups, each group comprises of 6 rats (weighing 140–150 g). The targeted compounds 6a–g were administrated intra-peritoneal (i.p.) an hour before ischemia, which lasted for (0.5 h) then reperfusion (1 h) followed by cutting the organ (Figure 5). Different biomarkers concentrations were measured in serum to detect testis injury due to ischemia/reperfusion (I/R).
(§2) During the long testicular torsion, oxidation damage affects the testis by the production of the reactive oxygen species (ROS). Excessive generation of the ROS interacts with lipids, proteins, and nucleic acids, which has an adverse effect on cell function and damage. The testis has high cell metabolism such that excessive ROS production weakens antioxidant capacity. Malondialdehyde (MDA) is the end product of lipid peroxidation and increased MDA level has an adverse effect on sperm fertility. Furthermore, total antioxidant capacity (TAC) is the measure of the number of free radicals scavenged by a test solution, being used to evaluate the antioxidant capacity of biological samples [55]. The data collected in Table S3 (Supplementary Materials) have identified that there was a significant increase in testicular MDA with a significant decrease in testicular TAC in the I/R group as well as compounds 6d and 6f when compared to sham control and NAC groups. These findings indicate that both 6d and 6f are the worst antiapoptotic compounds compound amongst all the synthesized compounds.
TAC was assessed by the colorimetric technique using commercial kits (El-Minia, Egypt) (See Supplementary Materials). Testicular MDA, an index of lipid peroxidation, was determined by using 1,1,3,3-tetramethoxypropane as standard (See Supplementary Materials). […]
1.3.Determination of Total Antioxidant Capacity (Testicular tissue)
Free radicals or reactive oxygen species (ROS) are produced during biochemical redox reactions as part
of normal physiological cell metabolism (protection from infectious organisms) and as a response to
environmental factors such as UV light, cigarette smoke, environmental pollutants, and g-radiation. Once
formed, ROS attack cellular components causing damage to lipids, proteins, and DNA which can initiate
Antioxidants in the sample reduce dark blue-green colored ABTS radical to colorless reduced ABTS
form. The change of absorbance at 660 nm is related with total antioxidant level of the sample. The assay
is calibrated with a stable antioxidant standard solution which is traditionally named as Trolox
Equivalent that is a vitamin E analog.
The determination of the antioxidative capacity is performed by the reaction of antioxidants in the
sample with a defined amount of exogenously provide hydrogen peroxide (H2O2) The antioxidants in the
sample eliminate a certain amount of the provided hydrogen peroxide. The residual H2O2 is determined
(1 picture or pasted object on this page, not shown here)
colorimetrically by an enzymatic reaction which involves the conversion of 3,5,dichloro–2–hydroxy
benzensulphonate to a colored product.
* Dilute R11000 times immediately before use (10 μl R1 + 10 ml d. Water mix Discard after use.
*Working Reagent: mix equal volumes of R2 and R3 immediately before use.
*Dilute sample if necessary
Total Antioxidant concentration […]

[2] = test system: testis of I/R rats; test: TNFα in testis of I/R rats (ELISA); type: in vivo; conditions: i.p. 1 h before ischemia, dose equivalent to 30 mg NAC, mean ± S.E.M, n=6
Description: as §1
(§3) It was reported that excessive apoptosis in the testis could damage the Leydig cells and apparent decline in serum testosterone levels. Furthermore, excessive apoptosis of Leydig cells results in decreased testosterone. The assays of the apoptotic biomarkers (testicular testosterone and TNFα) were done in comparison with the sham and NAC treated group and the results were outlined in Table S4 (Supplementary Materials).
(§4) TNF-α was measured by ELISA kit (Elabscience, Houston, TX, USA). Caspase-3 was measured by ELISA kit Cusabio, Houston, TX, USA (See Supplementary Materials). Testosterone concentration in testicular samples was determined by the ELISA kit (“DRG”, Marburg, Germany) (See Supplementary Materials).

[3] = test system: caspase-3; test: Caspase-3 level in serum of testicular I/R rats (ELISA); type: in vivo; conditions: mean ± S.E.M, n=6
Description: as §1
Caspases can delay apoptosis, implicating a potential role in drug screening efforts. Therefore, we studied the mechanism of the caspase-3 inhibition activity. Caspase-3 was assayed in the serum of rats treated with 6a–g in comparison with sham and the NAC treated group, as shown in Table S5 (Supplementary Materials).
as §4

[4] = test system: testis of I/R rats; test: Testicular MDA in testis of I/R rats; type: in vivo; conditions: i.p. 1 h before ischemia, dose equivalent to 30 mg NAC, mean ± S.E.M, n=6
Description: as §1, §2
TAC was assessed by the colorimetric technique using commercial kits (El-Minia, Egypt) (See Supplementary Materials). Testicular MDA, an index of lipid peroxidation, was determined by using 1,1,3,3-tetramethoxypropane as standard (See Supplementary Materials).

[5] = test system: testis of I/R rats; test: Testicular testosterone in testis of I/R rats (ELISA); type: in vivo; set-up: unit not given here; conditions: i.p. 1 h before ischemia, dose equivalent to 30 mg NAC, mean ± S.E.M, n=6
Description: as §1, §3, §4
1.2.Determination of serum testosterone using ELISA kit
This ELISA kit uses the Competitive-ELISA principle. The micro ELISA plate provided in this kit has been pre-coated with T. During the reaction, T in the sample or standard competes with a fixed amount of T on the solid phase supporter for sites on the Biotinylated Detection Ab specific to T. Excess conjugate and unbound sample or standard are washed from the plate, and Avidin conjugated to Horseradish Peroxidase (HRP) are added to each microplate well and incubated. Then a TMB substrate solution is added to each well. The enzyme-substrate reaction is terminated by the addition of stop solution and the color change is measured spectrophotometrically at a wavelength of 450 nm ± 2 nm. The concentration of T in the samples is then determined by comparing the OD of the samples to the standard […]
Serum: Allow samples to clot for 2 hours at room temperature or overnight at 4℃ before centrifugation for 20 min at 1000×g at 2-8℃. Collect the supernatant to carry out the assay. Blood collection tubes should be disposable and be non-endotoxin. […]
1. Bring all reagents to room temperature (18~25℃) before use. Follow the Microplate reader manual for set-up and preheat it for 15 min before OD measurement.
2. Wash Buffer: Dilute 30 mL of Concentrated Wash Buffer with 720 mL of deionized or distilled water to prepare 750 mL of Wash Buffer. Note: if crystals have formed in the concentrate, warm it in a 40℃ water-bath and mix it gently until the crystals have completely dissolved.
3. Standard working solution: Centrifuge the standard at 10,000×g for 1min. Add 1.0mL of Reference Standard &Sample Diluent, let it stand for 10min and invert it gently several times. After it dissolves fully, mix it thoroughly with a pipette. This reconstitution produces a working solution of 20 ng/mL. Then make serial dilutions as needed. The recommended dilution gradient is as […]
Dilution method: Take 7 EP tubes, add 500uL of Reference Standard & Sample Diluent to each tube. Pipette 500uL of the 20 ng/mL working solution to the first tube and mix up to produce a 10 ng/mL working solution. Pipette 500uL of the solution from the former tube to the latter one according to this step. The illustration below is for reference. Note: the last tube is regarded as a blank. Don’t pipette solution into it from the former tube.

melting point: 300 to 302 °C
Structure (SMILES): O=c1cc(OCc2cn(-c3cc(=O)[nH]c4ccccc34)nn2)c2ccccc2[nH]1 [6a, 4-((1-(2-Oxo-1,2-dihydroquinolin-4-yl)-1H-1,2,3-triazol-4-yl)methoxy)quinolin-2(1H)-one]
Testicular TAC [1]: 5.48±0.41 mmol/g tissue
TNF-α [2]: 106.40 ± 4.44 pg/mL
Caspase-3 level [3]: 2.66 ± 0.21 ng/mL
Testicular MDA [4]: 62.38±4.23 nmol/g tissue
Testicular testosterone [5]: 4.93±0.38

melting point: 298 °C
Structure (SMILES): Cc1ccc2[nH]c(=O)cc(-n3cc(COc4cc(=O)[nH]c5ccccc45)nn3)c2c1 [6b, 6-Methyl-4-(4-(((2-oxo-1,2-dihydroquinolin-4-yl)oxy)methyl)-1H-1,2,3-triazol-1-yl)quinolin-2(1H)-one]
Testicular TAC [1]: 4.62±0.33 mmol/g tissue
TNF-α [2]: 107.90 ± 2.96 pg/mL
Caspase-3 level [3]: 2.94 ± 0.28 ng/mL
Testicular MDA [4]: 61.84±4.77 nmol/g tissue
Testicular testosterone [5]: 5.07±0.45

Source: publication PMC7672604, “Design, Synthesis, Molecular Docking, Antiapoptotic and Caspase-3 Inhibition of New 1,2,3-Triazole/Bis-2(1H)-Quinolinone Hybrids” (Molecules, 2020)
